Data on 12 compounds can be found in ChEMBL document CHEMBL1201862, “PubChem BioAssay data set” (2004).

Among the test systems are KM-20L2; HCT-116; SK-MEL-28; SK-MEL-2; EKVX; OVCAR-8; A498; NCI-H23; NCI-H226; SNB-19; HL-60; HCT-15; MOLT-4; K562; M19-MEL; NCI-H460; XF498; SK-OV-3; SNB-78.
Common to all, as to assay: NCI tumour cell line growth inhibition, 48 h

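These data come from cells grown in 96-well plates and exposed to compound for 48 hours at five concentrations. GI50: concentration for 50% inhibition of growth.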 Calls of active or inactive are those of the source. Cut-off read from the data, not from the text of the source: active = GI50 up to about 1.1 µM and inactive = higher.

`COc1ccc2[nH]c3c(c2c1)[C@H]1CCC(C(C)(C)C)C[C@H]1[C@H]1C(=O)N(c2ccccc2)C(=O)[C@@H]31` (some centres not stated): the GI50 in the assay on KM-20L2 is > 51.4 µM (inactive); in the assay with HCT-116, 12.4 µM (inactive); in the assay on SK-MEL-28 it was 44.3 µM (inactive); in the assay on SK-MEL-2, 20 µM (inactive); in the assay with EKVX it was 32.7 µM (inactive); in the assay with OVCAR-8, 6.84 µM (inactive). The GI50 in the assay with A498 was 14.7 µM (inactive); in the assay with NCI-H23, 12.1 µM (inactive); with NCI-H226, 27.6 µM (inactive); in the assay on SNB-19, 16.3 µM (inactive); with HL-60, 39.4 µM (inactive); in the assay with HCT-15, greater than 100 µM. The GI50 in the assay with MOLT-4 is 20.9 µM (inactive); in the assay on K562, 20.6 µM (inactive); in the assay on M19-MEL it was 26.1 µM (inactive); in the assay with NCI-H460 it was 6.9 µM (inactive); in the assay with XF498 it was 9.91 µM (inactive); with SK-OV-3, 15.6 µM (inactive).
Regarding `O=[N+]([O-])c1nccn1COCCF`, the GI50 with KM-20L2, in the assay on HCT-116, in the assay on SK-MEL-28, in the assay on SK-MEL-2, in the assay with EKVX and in the assay with OVCAR-8 was > 100 µM (inactive) throughout. Also, the GI50 with NCI-H23 is > 100 µM (inactive); in the assay on NCI-H226, > 100 µM (inactive); in the assay with SNB-19 it was > 100 µM (inactive); in the assay with HL-60, > 100 µM (inactive); with HCT-15, greater than 100 µM; in the assay on MOLT-4, > 100 µM (inactive). Further, the GI50 in the assay on K562, in the assay with SNB-78, in the assay with M19-MEL, with NCI-H460, in the assay with XF498 and in the assay with SK-OV-3 was > 100 µM (inactive) throughout.
On to `CCCCc1nccc2c(C)c3[nH]c4ccccc4c3cc12`, for which the GI50 is 2.86 µM (inactive) in the assay with KM-20L2; 1.77 µM (inactive) in the assay with HCT-116; 4.26 µM (inactive) in the assay on SK-MEL-28; 3.88 µM (inactive) with SK-MEL-2; 4.48 µM (inactive) with EKVX; 2.84 µM (inactive) in the assay with OVCAR-8. Besides, the GI50 was 4.67 µM (inactive) in the assay on A498; 3.66 µM (inactive) with NCI-H23; 7.57 µM (inactive) with NCI-H226; 5 µM (inactive) in the assay on SNB-19; 1.83 µM (inactive) in the assay on HL-60; 2.07 µM in the assay on HCT-15. Also, the GI50 is 1.98 µM (inactive) in the assay with MOLT-4; 1.95 µM (inactive) in the assay on K562; 5.64 µM (inactive) with SNB-78; 3.1 µM (inactive) in the assay with M19-MEL; 2.17 µM (inactive) in the assay with NCI-H460; 5.81 µM (inactive) with SK-OV-3.
In the case of `O=C(CCc1nnc2s/c(=C\c3ccccc3Cl)c(=O)n12)Nc1cc(Cl)ccc1Cl`, the GI50 in the assay on HCT-116, in the assay on SK-MEL-28, with SK-MEL-2, in the assay on EKVX, in the assay with OVCAR-8 and in the assay with NCI-H23 was > 100 µM (inactive) throughout. In addition, the GI50 is > 100 µM (inactive) in the assay with NCI-H226; > 100 µM (inactive) with SNB-19; > 100 µM (inactive) in the assay with HL-60; greater than 100 µM in the assay with HCT-15; > 100 µM (inactive) with MOLT-4; > 100 µM (inactive) with K562. Also, the GI50 in the assay with SNB-78 is > 100 µM (inactive); with M19-MEL, > 100 µM (inactive); with NCI-H460, > 100 µM (inactive); in the assay on XF498 it was 70.8 µM (inactive); in the assay with SK-OV-3, > 100 µM (inactive).
Consider `[O-]/N=[N+](/[O-])C1CCCCC1=[N+]1CCOCC1` (configuration not stated), for which the GI50 in the assay on HCT-116, with SK-MEL-28, in the assay on SK-MEL-2, in the assay with EKVX, in the assay with OVCAR-8 and in the assay with A498 was > 100 µM (inactive) throughout. The GI50 in the assay with NCI-H23, in the assay on NCI-H226, in the assay with SNB-19, in the assay on HL-60, in the assay on MOLT-4 and in the assay on K562 was > 100 µM (inactive) in each case. Also, the GI50 is > 100 µM (inactive) in the assay with SNB-78; > 100 µM (inactive) with M19-MEL; > 100 µM (inactive) with NCI-H460; 0.157 µM (active) in the assay with XF498; > 100 µM (inactive) in the assay on SK-OV-3.
For `COC(=O)c1cc(CC(C)C)c2c(c1)[nH]c1ccccc12`, the GI50 in the assay on KM-20L2, with HCT-116, in the assay with SK-MEL-28, in the assay on SK-MEL-2, with EKVX and in the assay with OVCAR-8 was > 100 µM (inactive) throughout. The GI50 with A498 was > 100 µM (inactive); with NCI-H23, 49 µM (inactive); with NCI-H226 it was 28.7 µM (inactive); in the assay with SNB-19, > 100 µM (inactive); in the assay on HCT-15, 52.1 µM; in the assay on MOLT-4, 34 µM (inactive). Also, the GI50 in the assay on K562 is 15.9 µM (inactive); in the assay with M19-MEL it was > 100 µM (inactive); with NCI-H460 it was > 100 µM (inactive); in the assay with XF498 it was > 100 µM (inactive); in the assay with SK-OV-3 it was > 100 µM (inactive).
Consider `CCOC(=O)C(=O)Nc1c(CC)cccc1C(C)C`, for which the GI50 with KM-20L2, in the assay on HCT-116, in the assay with SK-MEL-28, with SK-MEL-2, in the assay with EKVX and with OVCAR-8 was > 100 µM (inactive) in each case. In addition, the GI50 in the assay on A498 is > 100 µM (inactive); in the assay on NCI-H23, > 100 µM (inactive); in the assay with NCI-H226, > 100 µM (inactive); in the assay with SNB-19 it was > 100 µM (inactive); in the assay on HCT-15 it was greater than 100 µM; in the assay on SNB-78, > 100 µM (inactive). Besides, the GI50 in the assay with M19-MEL, with NCI-H460, in the assay on XF498 and with SK-OV-3 was > 100 µM (inactive) throughout.
Regarding `CN1c2ccccc2N(C)C23N(C)c4ccccc4N(C)C12N(C)c1ccccc1N3C` (configuration not stated), the GI50 in the assay on KM-20L2, in the assay on HCT-116, with SK-MEL-28, in the assay with SK-MEL-2, with EKVX and in the assay with OVCAR-8 was > 100 µM (inactive) throughout. The GI50 was > 100 µM (inactive) with A498; > 100 µM (inactive) in the assay with NCI-H23; > 100 µM (inactive) in the assay with NCI-H226; > 100 µM (inactive) in the assay on SNB-19; > 100 µM (inactive) with HL-60; greater than 100 µM with HCT-15. Also, the GI50 in the assay with MOLT-4 is > 100 µM (inactive); in the assay with K562, > 100 µM (inactive); with M19-MEL, > 100 µM (inactive); with NCI-H460 it was > 100 µM (inactive); in the assay with XF498 it was 49.1 µM (inactive).
`O=c1cc(-c2ccc(Cl)cc2)oc2cc(OCCCOc3ccc4c(=O)cc(-c5ccc(Cl)cc5)oc4c3)ccc12`: the GI50 in the assay on KM-20L2, in the assay on HCT-116, in the assay with SK-MEL-28, in the assay on SK-MEL-2, in the assay with EKVX and with OVCAR-8 was > 100 µM (inactive) each time. Moreover, the GI50 in the assay with NCI-H23 was > 100 µM (inactive); with NCI-H226, > 100 µM (inactive); with SNB-19, > 100 µM (inactive); in the assay with HL-60 it was > 100 µM (inactive); in the assay with HCT-15 it was greater than 100 µM; in the assay on MOLT-4, > 100 µM (inactive). Also, the GI50 in the assay with K562, with SNB-78, in the assay on M19-MEL, in the assay with NCI-H460, with XF498 and with SK-OV-3 was > 100 µM (inactive) each time.
Turning to `O=C(O)C1c2ccccc2C(C(=O)O)c2ccccc21` (configuration not stated), the GI50 in the assay on KM-20L2, in the assay with HCT-116, in the assay with SK-MEL-2, in the assay on OVCAR-8, in the assay with A498 and with SNB-19 was > 100 µM (inactive) throughout. Further, the GI50 with HL-60 was > 100 µM (inactive); with HCT-15, greater than 100 µM; in the assay on MOLT-4, > 100 µM (inactive); with K562, > 100 µM (inactive); in the assay with SNB-78, > 100 µM (inactive); in the assay with M19-MEL, > 100 µM (inactive). The GI50 with NCI-H460 and with SK-OV-3 was > 100 µM (inactive) in each case.
As for `COC(=O)/C(C=O)=C/Sc1ccccc1`, the GI50 was 29.7 µM (inactive) in the assay on KM-20L2; 22.5 µM (inactive) in the assay with HCT-116; 19.4 µM (inactive) with SK-MEL-28; 30.9 µM (inactive) in the assay with SK-MEL-2; 29 µM (inactive) in the assay on EKVX; 15.6 µM (inactive) in the assay on OVCAR-8. The GI50 was 36.4 µM (inactive) in the assay on NCI-H23; 15.8 µM (inactive) with NCI-H226; 54.5 µM (inactive) with SNB-19; 45.5 µM (inactive) in the assay with HL-60; 22.6 µM in the assay on HCT-15; > 100 µM (inactive) in the assay on MOLT-4. Also, the GI50 was 50.7 µM (inactive) in the assay on K562; 26.5 µM (inactive) with SNB-78; 20 µM (inactive) in the assay with M19-MEL; 32.1 µM (inactive) with NCI-H460; 40 µM (inactive) in the assay on XF498; 42.9 µM (inactive) in the assay with SK-OV-3.
As to `Cc1ccc(NCC2(/N=C/c3ccccc3)OC(CO)C(O)C2O)cc1` (configuration not stated), the GI50 with KM-20L2 is 20.8 µM (inactive); in the assay with HCT-116, 36.6 µM (inactive); with SK-MEL-28, 62.5 µM (inactive); with SK-MEL-2 it was 31 µM (inactive); in the assay with OVCAR-8 it was > 100 µM (inactive); with NCI-H23, 54.1 µM (inactive). Moreover, the GI50 with NCI-H226 was > 100 µM (inactive); with SNB-19, > 100 µM (inactive); with HL-60 it was 20.5 µM (inactive); in the assay on HCT-15, 26.5 µM; with MOLT-4, 40.1 µM (inactive); in the assay with K562, 27.9 µM (inactive). Further, the GI50 in the assay on NCI-H460 is 32.7 µM (inactive); in the assay on XF498 it was > 100 µM (inactive).
